In patent EP2149374A1 (WORLD-TRADE IMPORT-EXPORT, WTIE, A.G., priority 2007, dated 2008):

Tests used:
[1] = Comparative clinical study: general urine examination (leukocytes in urine sediments, urine pH); type: in vivo, patients; conditions: n=50 per group
From the text: (§1) Urinary tract infection constitutes the most frequent urologic disease and is one of the most common infections in human beings. Urinary infection encompasses several clinical conditions, so the proper study thereof is very important for a suitable diagnose and treatment, in view of the extensive and not inconsiderable hospital and healthcare expenses these involve.
(§2) Inclusion criteria were the following: • - Patients from 18 to 75 years of age. • - Patients having a non-complex acute urinary infection diagnose. • > 12 leukocytes per mm3 in urine sediments. • - Urine counts of > 100,000 UFC/ml. • - Urine pH over 6.0. • - Microorganism identification.
(§3) Only twice a day for 5 days,- group 2, received Vitamin C 100 mg.
General urine examination determined the color, appearance and density thereof, as well as the pH, Proteins, Glucose, Ketones, Blood, Bilirubin, Urobilinogen, Nitrites, Density and Leukocytes. […] Table 2. Leukocytes per mm3 in baseline urine sediments and up to Day 5 of the treatment.

[2] = Comparative clinical study: overall healing process (conclusions); type: in vivo; conditions: patients with acute non-complex urinary tract infection, 5 days of treatment
Experimental: as §1, §3

E. coli = assay: Comparative clinical study: urocultive by antibiogram, urine counts (colony-forming units); type: in vivo, Escherichia coli; conditions: n=50 per group
From the text: as §1, §2, §3
Table 4. Urine Counts in UFC/ml. (Colony-Forming Units).

SMILES: O=C1O[C@H]([C@@H](O)CO)C(O)=C1O [Vitamin C, Ascorbic Acid]
- pH (Day 1) ([1]; baseline urine pH, before treatment): 7.6
- Leukocytes (Day 1) ([1]; baseline urine sediments, before treatment): > 13 per mm3
- pH (Day 5) ([1]; urine pH, Day 5 of the treatment, twice a day for 5 days): 5.0
- Leukocytes Day 5 ([1]; urine sediments, Day 5 of the treatment, twice a day for 5 days): < 10 per mm3
- healing process [2]: not sufficient by itself to achieve a healing process
- UFC/ml (Day 1) (E. coli; baseline urine counts (Colony-Forming Units), before treatment): >100,000/ml. UFC/ml
- UFC/ml Day 5 (E. coli; urine counts (Colony-Forming Units), Day 5 of the treatment, twice a day for 5 days): 90.000/ml. UFC/ml
